Results taken from BigSolDB 2.1.

O=C1CCc2cc(O)ccc2N1
solubility (mole fraction)
Conditions | in THF | in acetonitrile | in ethanol | in ethyl acetate | in isobutanol | in isopropanol | in methanol | in methyl acetate | in n-butanol | in n-propanol
278.15 K | 0.00248 | 0.000292 | 0.00214 | 0.000666 | 0.00114 | 0.00186 | 0.00224 | 0.00155 | 0.00181 | 0.00173
283.15 K | 0.00277 | 0.000345 | 0.00242 | 0.000723 | 0.00134 | 0.00226 | 0.0027 | 0.00172 | 0.00201 | 0.00202
288.15 K | 0.00307 | 0.000403 | 0.00281 | 0.000792 | 0.00162 | 0.0026 | 0.00309 | 0.00188 | 0.00232 | 0.00236
293.15 K | 0.00346 | 0.00048 | 0.00324 | 0.00086 | 0.00192 | 0.003 | 0.00356 | 0.00209 | 0.00269 | 0.0027
298.15 K | 0.00383 | 0.000576 | 0.00373 | 0.000927 | 0.00229 | 0.00346 | 0.00412 | 0.00231 | 0.00309 | 0.00314
303.15 K | 0.00424 | 0.000668 | 0.00431 | 0.000992 | 0.00268 | 0.00395 | 0.0048 | 0.00257 | 0.00357 | 0.00364
308.15 K | 0.00473 | 0.000784 | 0.00496 | 0.00108 | 0.00316 | 0.00471 | 0.00551 | 0.00287 | 0.00409 | 0.00419
313.15 K | 0.00526 | 0.000887 | 0.00574 | 0.00115 | 0.00378 | 0.0055 | 0.00648 | 0.00316 | 0.00473 | 0.00482
318.15 K | 0.00591 | 0.00102 | 0.00664 | 0.00122 | 0.00427 | 0.00631 | 0.00745 | 0.00352 | 0.00543 | 0.00554
323.15 K | 0.00651 | 0.00118 | 0.00761 | 0.00131 | 0.00493 | 0.00721 | 0.00838 | 0.00391 | 0.00623 | 0.00641
